Data taken from ChEMBL document CHEMBL4004838, “Design and synthesis of novel phenyl -1, 4-beta-carboline-hybrid molecules as potential anticancer agents” (Eur J Med Chem, 2017).

Legend:
Format in all cases: functional
[1] = system: NCI-H522; assay: Growth inhibition of human NCI-H522 cells assessed as cell growth at 10^-5 M incubated for 48 hrs by sulforhodamine B assay relative to control; conditions: NCI-H522, 48 h, read-out: Activity
[2] = system: SK-MEL-28; assay: Growth inhibition of human SK-MEL-28 cells assessed as cell growth at 10^-5 M incubated for 48 hrs by sulforhodamine B assay relative to control; conditions: SK-MEL-28, 48 h, read-out: Activity
[3] = system: NCI-H322M; assay: Growth inhibition of human NCI-H322M cells assessed as cell growth at 10^-5 M incubated for 48 hrs by sulforhodamine B assay relative to control; conditions: read-out: Activity
[4] = system: Hs-578T; assay: Growth inhibition of human Hs 578T cells assessed as cell growth at 10^-5 M incubated for 48 hrs by sulforhodamine B assay relative to control; conditions: read-out: Activity
[5] = system: COLO 205; assay: Growth inhibition of human COLO205 cells assessed as cell growth at 10^-5 M incubated for 48 hrs by sulforhodamine B assay relative to control; conditions: COLO 205, 48 h, read-out: Activity
[6] = system: SR; assay: Growth inhibition of human SR cells assessed as cell growth at 10^-5 M incubated for 48 hrs by sulforhodamine B assay relative to control; conditions: read-out: Activity
[7] = system: SK-MEL-5; assay: Growth inhibition of human SK-MEL-5 cells assessed as cell growth at 10^-5 M incubated for 48 hrs by sulforhodamine B assay relative to control; conditions: SK-MEL-5, 48 h, read-out: Activity
[8] = system: MCF7; assay: Growth inhibition of human MCF7 cells assessed as cell growth at 10^-5 M incubated for 48 hrs by sulforhodamine B assay relative to control; conditions: MCF7, 48 h, read-out: Activity
[9] = system: NCI-H23; assay: Growth inhibition of human NCI-H23 cells assessed as cell growth at 10^-5 M incubated for 48 hrs by sulforhodamine B assay relative to control; conditions: NCI-H23, 48 h, read-out: Activity
[10] = system: HCT-15; assay: Growth inhibition of human HCT15 cells assessed as cell growth at 10^-5 M incubated for 48 hrs by sulforhodamine B assay relative to control; conditions: HCT-15, 48 h, read-out: Activity
[11] = system: HOP-62; assay: Growth inhibition of human HOP62 cells assessed as cell growth at 10^-5 M incubated for 48 hrs by sulforhodamine B assay relative to control; conditions: HOP-62, 48 h, read-out: Activity
[12] = system: OVCAR-8; assay: Growth inhibition of human OVCAR8 cells assessed as cell growth at 10^-5 M incubated for 48 hrs by sulforhodamine B assay relative to control; conditions: OVCAR-8, 48 h, read-out: Activity
[13] = system: NCI-H460; assay: Growth inhibition of human NCI-H460 cells assessed as cell growth at 10^-5 M incubated for 48 hrs by sulforhodamine B assay relative to control; conditions: NCI-H460, 48 h, read-out: Activity
[14] = system: LOX IMVI; assay: Growth inhibition of human LOXIMVI cells assessed as cell growth at 10^-5 M incubated for 48 hrs by sulforhodamine B assay relative to control; conditions: read-out: Activity
[15] = system: M14; assay: Growth inhibition of human M14 cells assessed as cell growth at 10^-5 M incubated for 48 hrs by sulforhodamine B assay relative to control; conditions: M14, 48 h, read-out: Activity
[16] = system: SF-539; assay: Growth inhibition of human SF539 cells assessed as cell growth at 10^-5 M incubated for 48 hrs by sulforhodamine B assay relative to control; conditions: SF-539, 48 h, read-out: Activity
[17] = system: UO-31; assay: Growth inhibition of human UO31 cells assessed as cell growth at 10^-5 M incubated for 48 hrs by sulforhodamine B assay relative to control; conditions: UO-31, 48 h, read-out: Activity
[18] = system: HOP-92; assay: Growth inhibition of human HOP92 cells assessed as cell growth at 10^-5 M incubated for 48 hrs by sulforhodamine B assay relative to control; conditions: HOP-92, 48 h, read-out: Activity
[19] = system: SK-MEL-2; assay: Growth inhibition of human SK-MEL-2 cells assessed as cell growth at 10^-5 M incubated for 48 hrs by sulforhodamine B assay relative to control; conditions: SK-MEL-2, 48 h, read-out: Activity
[20] = system: DU-145; assay: Growth inhibition of human DU145 cells assessed as cell growth at 10^-5 M incubated for 48 hrs by sulforhodamine B assay relative to control; conditions: DU-145, 48 h, read-out: Activity
[21] = system: CCRF-CEM; assay: Growth inhibition of human CCRF-CEM cells assessed as cell growth at 10^-5 M incubated for 48 hrs by sulforhodamine B assay relative to control; conditions: read-out: Activity
[22] = system: NCI/ADR-RES; assay: Growth inhibition of human NCI-ADR-RES cells assessed as cell growth at 10^-5 M incubated for 48 hrs by sulforhodamine B assay relative to control; conditions: read-out: Activity
[23] = system: MDA-MB-468; assay: Growth inhibition of human MDA-MB-468 cells assessed as cell growth at 10^-5 M incubated for 48 hrs by sulforhodamine B assay relative to control; conditions: MDA-MB-468, 48 h, read-out: Activity
[24] = system: SK-OV-3; assay: Growth inhibition of human SKOV3 cells assessed as cell growth at 10^-5 M incubated for 48 hrs by sulforhodamine B assay relative to control; conditions: SK-OV-3, 48 h, read-out: Activity
[25] = system: A549; assay: Growth inhibition of human A549/ATCC cells assessed as cell growth at 10^-5 M incubated for 48 hrs by sulforhodamine B assay relative to control; conditions: A549, 48 h, read-out: Activity
[26] = system: K562; assay: Growth inhibition of human K562 cells assessed as cell growth at 10^-5 M incubated for 48 hrs by sulforhodamine B assay relative to control; conditions: K562, 48 h, read-out: Activity
[27] = system: OVCAR-5; assay: Growth inhibition of human OVCAR5 cells assessed as cell growth at 10^-5 M incubated for 48 hrs by sulforhodamine B assay relative to control; conditions: OVCAR-5, 48 h, read-out: Activity
[28] = system: TK-10; assay: Growth inhibition of human TK10 cells assessed as cell growth at 10^-5 M incubated for 48 hrs by sulforhodamine B assay relative to control; conditions: TK-10, 48 h, read-out: Activity
[29] = system: MDA-MB-435; assay: Growth inhibition of human MDA-MB-435 cells assessed as cell growth at 10^-5 M incubated for 48 hrs by sulforhodamine B assay relative to control; conditions: MDA-MB-435, 48 h, read-out: Activity
[30] = system: A498; assay: Growth inhibition of human A498 cells assessed as cell growth at 10^-5 M incubated for 48 hrs by sulforhodamine B assay relative to control; conditions: A498, 48 h, read-out: Activity
[31] = system: HCC 2998; assay: Growth inhibition of human HCC2998 cells assessed as cell growth at 10^-5 M incubated for 48 hrs by sulforhodamine B assay relative to control; conditions: HCC 2998, 48 h, read-out: Activity
[32] = system: 786-0; assay: Growth inhibition of human 786-0 cells assessed as cell growth at 10^-5 M incubated for 48 hrs by sulforhodamine B assay relative to control; conditions: 786-0, 48 h, read-out: Activity

c1ccc2c(c1)[nH]c1c(-c3ccc(-c4nccc5c4[nH]c4ccccc45)cc3)nccc12
growth at 10 µM [1]: 84.7%
growth at 10 µM [2]: 110%
growth at 10 µM [3]: 104%
growth at 10 µM [4]: 97.7%
growth at 10 µM [5]: 92%
growth at 10 µM [6]: 86%
growth at 10 µM [7]: 79%
growth at 10 µM [8]: 88.4%
growth at 10 µM [9]: 77.7%
growth at 10 µM [10]: 99.7%
growth at 10 µM [11]: 82.7%
growth at 10 µM [12]: 111%
growth at 10 µM [13]: 103%
growth at 10 µM [14]: 89.4%
growth at 10 µM [15]: 99.3%
growth at 10 µM [16]: 109%
growth at 10 µM [17]: 60.6%
growth at 10 µM [18]: 98.7%
growth at 10 µM [19]: 95.6%
growth at 10 µM [20]: 122%
growth at 10 µM [21]: 106%
growth at 10 µM [22]: 95.9%
growth at 10 µM [23]: 105%
growth at 10 µM [24]: 88%
growth at 10 µM [25]: 115%
growth at 10 µM [26]: 93.8%
growth at 10 µM [27]: 110%
growth at 10 µM [28]: 105%
growth at 10 µM [29]: 109%
growth at 10 µM [30]: 145%
growth at 10 µM [31]: 102%
growth at 10 µM [32]: 94.8%
